# What was measured:
# Test in all cases: HPLC product formation, Michaelis-Menten
# Type in all cases: biochemical, Sarcandra glabra
# SgRAS = tested on: T1, SgRAS; settings: 0.1 M potassium phosphate, exact conditions in Table S15
# T1 construct: full length, 449 residues, 49348 Da
# Excerpt: HPLC product formation, Michaelis-Menten on SgRAS
# SgHST = tested on: T2, SgHST; settings: 0.1 M potassium phosphate, exact conditions in Table S12
# T2 construct: full length, 436 residues, 48424 Da
# Excerpt: HPLC product formation, Michaelis-Menten on SgHST
# SgHQT1 = tested on: T3, SgHQT1; settings: 0.1 M potassium phosphate, exact conditions in Table S13
# T3 construct: full length, 427 residues, 47772 Da
# Excerpt: HPLC product formation, Michaelis-Menten on SgHQT1
# SgHQT2 = tested on: T4, SgHQT2; settings: 0.1 M potassium phosphate, exact conditions in Table S14
# T4 construct: full length (5'-RACE), 441 residues, 48847 Da
# Excerpt: HPLC product formation, Michaelis-Menten on SgHQT2
# [1] = with 4-hydroxyphenyllactic acid (pHPL)
compound,measurement,setting,value
O=C(O)[C@H](O)Cc1ccc(O)c(O)c1,Km,SgRAS; with p-coumaroyl-CoA,867 ± 105 µM
"Nc1c(O)cccc1C(=O)O [3‐Hydroxyanthranilic acid, 2‐amino‐3‐hydroxybenzoic]",Km,SgHST; with p-coumaroyl-CoA,238 ± 19.6 µM
O=C(O)C(O)Cc1ccc(O)cc1 (stereo not shown) [4‐hydroxyphenyllactic acid],Km,SgRAS; with p-coumaroyl-CoA,544 ± 47.4 µM
CC(C)(COP(=O)(O)OP(=O)(O)OC[C@H]1O[C@@H](n2cnc3c(N)ncnc32)[C@H](O)[C@@H]1OP(=O)(O)O)[C@@H](O)C(=O)NCCC(=O)NCCSC(=O)/C=C/c1ccc(O)c(O)c1 [Caffeoyl‐CoA],Km,SgHQT1; with quinic acid,9.3 ± 2.5 µM
same,Km,SgHQT2; with quinic acid,213 ± 53.5 µM
same,Km,SgHST; with shikimic acid,21.4 ± 6.8 µM
same,Km,SgRAS; [1],57.2 ± 15.7 µM
O=C(O)[C@]1(O)C[C@@H](O)[C@@H](O)[C@H](O)C1 [Quinic acid],Km,SgHQT1; with p-coumaroyl-CoA,5520 ± 713 µM
same,Km,SgHQT2; with p-coumaroyl-CoA,11100 ± 1560 µM
same,K m (μM),SgHST; with p-coumaroyl-CoA,16 740.0 ± 1833.0 μM
O=C(O)C1=C[C@@H](O)[C@@H](O)[C@H](O)C1 [Shikimic acid],K m (μM),"SgHQT1; with p-coumaroyl-CoA, n = 3 ± SD",85 440.0 ± 18 700.0 μM
same,Km,SgHST; with p-coumaroyl-CoA,1220 ± 153 µM
CC(C)(COP(=O)(O)OP(=O)(O)OC[C@H]1O[C@@H](n2cnc3c(N)ncnc32)[C@H](O)[C@@H]1OP(=O)(O)O)[C@@H](O)C(=O)NCCC(=O)NCCSC(=O)/C=C/c1ccc(O)cc1 [p‐Coumaroyl‐CoA],Km,SgHQT1; with quinic acid,19.9 ± 3.4 µM
same,Km,SgHQT2; with quinic acid,82.3 ± 14.8 µM
same,Km,SgHST; with shikimic acid,17.4 ± 4.9 µM
same,Km,SgRAS; [1],14.6 ± 1.7 µM

# Reference: PMC11875395, “Phenolic metabolism in Sarcandra glabra is mediated by distinct BAHD hydroxycinnamoyltransferases” (The Plant Journal, 2025)
